Reference: paper PMC6403232, “Production and Anticancer Activity of an L-Asparaginase from Bacillus licheniformis Isolated from the Red Sea, Saudi Arabia” (Scientific Reports, 2019)

System: T1, ASNase (L-asparaginase) from Bacillus licheniformis KKU-KH14
T1 construct: gene ansZ
Details: L-asparagine 0.0-0.1 M; standard assay Tris-HCl pH 7.4, 30 min; temperature of the kinetic assay not stated

Km: 50 mM
SMILES: NC(=O)C[C@H](N)C(=O)O [L-asparagine]
